Results on 1 compound are retold here after patent US10953028B2, “Method of treating heterotopic ossification” (THE REGENTS OF THE UNIVERSITY OF MICHIGAN, priority 2015, dated 2021).

For one test, the system named is burn/tenotomy mice. Put plainly: Burn/tenotomy trauma-induced HO model (microCT, histology, immunostaining). The format is in vivo, mouse. The note with it: 9 weeks.
Test [1] concerns caACVR1fl/fl mice injected with cardiotoxin and Ad.cre. The note with it: mouse, in vivo.

Several values for one entry are separate records, joined by “and”; a condition that tells them apart may be missing. Equal entries are not always repeated.

On to `CO[C@H]1C[C@@H]2CC[C@@H](C)[C@@](O)(O2)C(=O)C(=O)N2CCCC[C@H]2C(=O)O[C@H]([C@H](C)C[C@@H]2CC[C@@H](O)[C@H](OC)C2)CC(=O)[C@H](C)/C=C(\C)[C@@H](O)[C@@H](OC)C(=O)[C@H](C)C[C@H](C)/C=C/C=C/C=C/1C` [rapamycin], for which the “de novo (soft tissue) HO volume” value in the test on burn/tenotomy mice (rapamycin 5 mg/kg i.p. every other day, control 1.60 mm^3) stood at 0.81 mm^3. Also, the “de novo (soft tissue) HO normalized volume” value with burn/tenotomy mice (rapamycin 5 mg/kg i.p., control = 1.0) worked out at 0.51. Besides, in test [1], the “total HO normalized volume” value was 0.0; the “total HO volume” value was 0.00 mm^3 and 0.0 mm^3.
